Assay results taken from the NIST ThermoML archive (doi:10.1021/je060271a).
Where “and” joins values, the source holds several entries; their conditions need not be identical. Equal values may be shown once.

Conditions: 283.16 K, Liquid, Vibrating tube method

CCCC(=O)OCC(COC(=O)CCC)(COC(=O)CCC)COC(=O)CCC [pentaerythritol tetrabutyrate]
Conditions | mass density
961.7 kPa | 1059.5 kg/m3
999.7 kPa | 1059.6 kg/m3
1040.4 kPa | 1059.6 kg/m3
1083.6 kPa | 1059.5 kg/m3
1139.2 kPa | 1059.6 kg/m3
1188.5 kPa | 1059.7 kg/m3
1241.1 kPa | 1059.6 kg/m3
1292.9 kPa | 1059.7 kg/m3
1371.5 kPa | 1059.9 kg/m3
1415.8 kPa | 1059.8 kg/m3
1495.3 kPa | 1059.8 kg/m3
1575.5 kPa | 1059.9 kg/m3
1654.8 kPa | 1060 kg/m3
1780.7 kPa | 1060 kg/m3
1864.8 kPa | 1060 kg/m3
1998.8 kPa | 1060 kg/m3
2122.7 kPa | 1060.1 kg/m3
2233.6 kPa | 1060.3 kg/m3
2404.2 kPa | 1060.4 kg/m3
2613.1 kPa | 1060.5 kg/m3
2776.8 kPa | 1060.6 kg/m3
2989.2 kPa | 1060.8 kg/m3
3065.6 kPa | 1060.8 kg/m3
3087.4 kPa | 1060.8 kg/m3
3106 kPa | 1060.8 kg/m3
3124.9 kPa | 1060.8 kg/m3
3144.5 kPa | 1060.9 kg/m3
3170 kPa | 1060.8 kg/m3
3189.5 kPa | 1060.9 kg/m3
3209.5 kPa | 1060.9 kg/m3
3233.2 kPa | 1060.9 kg/m3
3253.5 kPa | 1060.9 kg/m3
3273.9 kPa | 1060.9 kg/m3
3294.9 kPa | 1061 kg/m3
3316.1 kPa | 1060.8 kg/m3
3341.2 kPa | 1060.9 kg/m3
3361.8 kPa | 1061 kg/m3
3387.1 kPa | 1061.1 kg/m3
3409.1 kPa | 1061 kg/m3
3431.1 kPa | 1061 kg/m3
3452.8 kPa | 1061 kg/m3
3479 kPa | 1061.1 kg/m3
3502 kPa | 1060.9 kg/m3
3524 kPa | 1061.1 kg/m3
3546.7 kPa | 1061.2 kg/m3
3574.4 kPa | 1061.1 kg/m3
3597.5 kPa | 1061.1 kg/m3
3620.7 kPa | 1061.1 kg/m3
3648.8 kPa | 1061.1 kg/m3
3672.5 kPa | 1061.2 kg/m3
3696.2 kPa | 1061.2 kg/m3
3720.5 kPa | 1061.2 kg/m3
3749.6 kPa | 1061.2 kg/m3
3773 kPa | 1061.2 kg/m3
3845.7 kPa | 1061.3 kg/m3
3868.4 kPa | 1061.3 kg/m3
3891.5 kPa | 1061.4 kg/m3
3914 kPa | 1061.3 kg/m3
3941.5 kPa | 1061.3 kg/m3
3964.7 kPa | 1061.3 kg/m3
3987.6 kPa | 1061.4 kg/m3
4009.4 kPa | 1061.4 kg/m3
4029.8 kPa | 1061.4 kg/m3
4033 kPa | 1061.4 kg/m3
4416.7 kPa | 1061.6 kg/m3
4447.7 kPa | 1061.7 kg/m3
4473.5 kPa | 1061.6 kg/m3
4500 kPa | 1061.6 kg/m3
4526.4 kPa | 1061.8 kg/m3
4559.5 kPa | 1061.7 kg/m3
4586.3 kPa | 1061.8 kg/m3
4619.9 kPa | 1061.7 kg/m3
4643.6 kPa | 1061.7 kg/m3
4676.5 kPa | 1061.6 kg/m3
4704.4 kPa | 1061.8 kg/m3
4732.4 kPa | 1061.8 kg/m3
4765.8 kPa | 1061.8 kg/m3
4794.4 kPa | 1061.8 kg/m3
4823.6 kPa | 1061.8 kg/m3
4858.1 kPa | 1061.8 kg/m3
4887.2 kPa | 1061.9 kg/m3
4916.6 kPa | 1061.9 kg/m3
4946.3 kPa | 1061.9 kg/m3
4983.2 kPa | 1061.9 kg/m3
4995.1 kPa | 1062.1 kg/m3
4995.4 kPa | 1061.9 kg/m3
4997.5 kPa | 1062.1 kg/m3
4999.9 kPa | 1062 kg/m3
5001.3 kPa | 1061.9 kg/m3
5002.4 kPa | 1061.9 kg/m3
5003.4 kPa | 1062 kg/m3
5003.7 kPa | 1062 kg/m3
5004.3 kPa | 1061.9 kg/m3
5004.6 kPa | 1062 kg/m3
5004.8 kPa | 1062 kg/m3
5005 kPa | 1062 kg/m3
5005.3 kPa | 1062.1 kg/m3
5005.5 kPa | 1062 kg/m3
5005.6 kPa | 1062.1 kg/m3 and 1062 kg/m3
5005.8 kPa | 1062 kg/m3
5006 kPa | 1061.8 kg/m3
5006.2 kPa | 1061.9 kg/m3
5006.3 kPa | 1061.9 kg/m3 and 1062 kg/m3
5006.5 kPa | 1062.1 kg/m3 and 1062 kg/m3
5006.7 kPa | 1061.9 kg/m3
5006.9 kPa | 1061.9 kg/m3 and 1062 kg/m3
5007 kPa | 1062.1 kg/m3 and 1062 kg/m3
5007.2 kPa | 1061.9 kg/m3 and 1062.1 kg/m3 and 1062 kg/m3
5007.4 kPa | 1061.9 kg/m3 and 1062 kg/m3
5007.5 kPa | 1062 kg/m3
5007.7 kPa | 1062 kg/m3 and 1061.9 kg/m3
5007.9 kPa | 1062.1 kg/m3 and 1062 kg/m3
5008 kPa | 1062 kg/m3 and 1062.1 kg/m3
5008.1 kPa | 1061.9 kg/m3 and 1062.2 kg/m3 and 1062 kg/m3
5008.2 kPa | 1062 kg/m3 and 1061.9 kg/m3
5008.3 kPa | 1062 kg/m3 and 1061.9 kg/m3
5008.5 kPa | 1062 kg/m3 and 1062.1 kg/m3
5008.6 kPa | 1061.9 kg/m3
5009.4 kPa | 1061.9 kg/m3
5009.6 kPa | 1061.9 kg/m3 and 1062 kg/m3
5009.8 kPa | 1062 kg/m3 and 1061.9 kg/m3
5010 kPa | 1062 kg/m3
5010.1 kPa | 1061.9 kg/m3 and 1062 kg/m3
5010.3 kPa | 1062 kg/m3 and 1062.1 kg/m3 and 1061.9 kg/m3
5010.5 kPa | 1061.9 kg/m3
5010.7 kPa | 1062.1 kg/m3 and 1062 kg/m3
5010.8 kPa | 1062 kg/m3 and 1061.9 kg/m3
5011 kPa | 1062.2 kg/m3
5011.2 kPa | 1062.1 kg/m3 and 1061.9 kg/m3
5011.3 kPa | 1062 kg/m3
5011.7 kPa | 1061.9 kg/m3 and 1062 kg/m3 and 1062.1 kg/m3
5011.9 kPa | 1061.9 kg/m3 and 1062 kg/m3
5012 kPa | 1061.9 kg/m3
5012.2 kPa | 1062 kg/m3 and 1062.1 kg/m3 and 1061.9 kg/m3
5012.4 kPa | 1062 kg/m3 and 1061.9 kg/m3 and 1062.1 kg/m3
5012.6 kPa | 1062 kg/m3 and 1061.9 kg/m3 and 1061.8 kg/m3
5012.7 kPa | 1062 kg/m3
5012.9 kPa | 1062 kg/m3
5013.1 kPa | 1062 kg/m3
5013.8 kPa | 1062 kg/m3
5013.9 kPa | 1062 kg/m3
5017.5 kPa | 1062 kg/m3
5022.8 kPa | 1062 kg/m3
5022.9 kPa | 1062.1 kg/m3
5025.4 kPa | 1062 kg/m3
5025.5 kPa | 1062 kg/m3
